Here are results for twelve compounds from patent US20170363612A1, “COMPOSITIONS AND METHODS RELATING TO PROLIFERATIVE DISORDERS” (Wayne State University, priority 2014, published 2017).

pIC50: −log10 of the molar value. Values joined by “and” are separate entries in the source; they are usually repeats but may differ in a detail not shown here. Equal values may be shown once. “Also recorded” adds a separate entry of the source. Read-outs that look alike come from different tables or passages of the source. Marks after values point to notes of the source that are not given here. Residues, ends and D or L forms follow the SMILES beside them. *: point of attachment. Cbz = O=C(OCc1ccccc1)* A value given as a limit tells only on which side of the number the result lay.

The test system of data set [1] is SET Ribosome.
The subject of data set [2] is SET Ribosome. The format is in vivo, nude mice. The settings on record: individual animals; for % Induction: post- vs pre-treatment.
Data set [3] has as its system HCT116 hTRdm-fLUC#32 tumors. The format is in vivo, nude mice. The conditions noted are these: cremophorEL 0.5 mg/kg/day Q2Dx5; cyclophosphamide 120 mg/kg/day Q4Dx3; IV.
For data set [4] the following is noted: in vivo, cited from earlier work.
Data set [5] deals with HCT116 hTRdm-fLUC#32 tumors. The conditions noted are these: for Tumor Regression during Treatment, Average / Tumor Regression during Treatment, Mean: oral daily 18 days, Cape 500 mg/kg/day, anisomycin L 0.000027, H 0.000054 mg/kg/day.
For data set [6], the system named is HCT116 hTRdm-fLUC#32 tumors. The conditions noted are these: for Tumor Regression during Treatment, Average / Tumor Regression during Treatment, Mean: oral daily 10 days, Cape 400 mg/kg/day.
In data set [7] the test system is SET Ribosome. Briefly: Cobalt chloride Dose-dependent Modifier Assay, HEK293 mTRdm-fLUC#12. The format is cell-based, human. The settings on record: 6 hours.
For data set [8], the system named is SET Ribosome. Briefly: TPA Reference Standard Response Modifier Assay with ribosome binding translation inhibitors, HEK293 hTRdm-fLUC#13. The format is cell-based, human. The settings on record: with 100 nM TPA; 6 hours.
The subject of data set [9] is SET Ribosome. Kind of data set: Rapamycin dose response and TPA+Taxol Modifier Assay, MCF7 TR Cell Panel.
Method: To tease apart the growth and stress responses, cells were treated with varying doses of rapamycin, incubated at 37° C. for 6 hours, and assayed for fLuc activity.
In other studies, the effects of different rapamycin concentrations were measured in combination with the TPA+Taxol Reference Standard response in the MCF7 derived cell lines that express the fLuc reporter either constitutively (CMV lines) or as a part of the TR Expression Cassette (hTR and mTR lines). […] Cells were treated with 100 nM TPA, 500 nM paclitaxel, and varying concentrations of rapamycin, incubated at 37° C. for 6 hours, and assayed for fLuc activity.
Select members of the MCF7 TR Cell Panel were plated into 96-well microtiter plates and processed as described for a Cell Count Dose-dependent Modifier protocol. Rapamycin concentrations were tested for an ability to alter the Reference Standard responses produced by a 100 nM TPA/500 nM paclitaxel combination. Rapamycin was applied at doses ranging from 1 nM to 1 μM concentrations. All dilutions were prepared in complete growth media. Cells were incubated for 6 hrs, processed, and assayed for luciferase activity as described.
Where [10] appears, read: single listed concentration: dbcAMP 5 mM, TPA 100 nM, Paclitaxel 500 nM, MG132 50 uM, Colchicine 1 uM, MRA 150 nM, Bortezomib 50 nM.
[11] abbreviates: MCF7 TR Class 3/4 lines, 100 nM TPA + 500 nM paclitaxel, 6 hours.

As for `CC(C)C[C@H](NC(=O)[C@H](Cc1ccccc1)NC(=O)c1cnccn1)B(O)O` [Bortezomib (Velcade), [(1R)-3-methyl-1-[[(2S)-1-oxo-3-phenyl-2-[(pyrazinylcarbonyl)amino]propyl]amino]butyl] boronic acid], in the data set with SET Ribosome [1] (setting [10]), the “SET Response” value is reported as “Antagonist/; also recorded: Agonist”.

Turning to `CNc1ccc2oc(C[C@H]3O[C@@]4(CC[C@H]3C)O[C@H]([C@H](C)C(=O)c3ccc[nH]3)[C@H](C)C[C@H]4C)nc2c1C(=O)O` [Calon, Calcimycin], the “SET Response” value in the data set on SET Ribosome [1] is “Antagonist; also recorded: Agonist”.

For `COc1cc2c(c(OC)c1OC)-c1ccc(OC)c(=O)cc1[C@@H](NC(C)=O)CC2` [Colchicine, N-[(7S)-1,2,3,10-tetramethoxy-9-oxo-5,6,7,9-tetrahydrobenzo[a]heptalen-7-yl]acetamide], the “SET Response” value in the data set with SET Ribosome [1] is “Agonist”.

On to `O=P1(N(CCCl)CCCl)NCCCO1` (stereo not shown) [Cyclophosphamide, RS-N,N-bis(2-chloroethyl)-1,3,2-oxazaphosphinan-2-amine 2-oxide], for which the “6 hr Post-treatment Value (bioluminescence signal intensity)” value is 38.6 ×10e6 photons and 50.4 ×10e6 photons and 101.0 ×10e6 photons and 39.3 ×10e6 photons and 82.5 ×10e6 photons and 56.8 ×10e6 photons in the data set with SET Ribosome [2] (IV, CremophorEL 0.5 mg/kg, paclitaxel 20 mg/kg, cyclophosphamide 120 mg/kg, average tumor size 125 mg); 75.0 ×10e6 photons and 81.5 ×10e6 photons and 48.8 ×10e6 photons in the data set on SET Ribosome [2] (average tumor size 500 mg). The “% Induction” value in the data set with SET Ribosome [2] (average tumor size 125 mg) was 12,866.7% *** and 381.8% and 167.2% and 13,100.0% *** and 373.3% and 18,933.3% ***; in the data set on SET Ribosome [2] (average tumor size 500 mg), 204.9% and 368.8% and 109.7%. Also, the “effect on tumor growth” value in [3] is listed as “slowed tumor growth”. Besides, the elimination half-life in [4] (po) was 3 to 12 h. In data set [4] (po), the oral bioavailability was over 75%. The “dose excreted in the urine as unchanged drug” value in data set [4] was 5-25%.

For the compound `CC(C)C[C@@H](C=O)NC(=O)[C@H](CC(C)C)NC(=O)[C@H](CC(C)C)NC(=O)OCc1ccccc1` [MG132, Z-Leu-Leu-Leu-aldehyde] (Cbz-Leu-Leu-Leu-aldehyde), the “SET Response” value in the data set on SET Ribosome [1] is reported as “Antagonist/; also recorded: Agonist”.

With `CC(=O)O[C@H]1C(=O)[C@@]2(C)[C@H]([C@H](OC(=O)c3ccccc3)[C@]3(O)C[C@H](OC(=O)[C@H](O)[C@@H](NC(=O)c4ccccc4)c4ccccc4)C(C)=C1C3(C)C)[C@]1(OC(C)=O)CO[C@@H]1C[C@@H]2O` [Paclitaxel, 5β,20-epoxy-1,2α,4,7β,10β,13α-hexahydroxytax-1-1-en-9-14,10-diacetate 2-benzoate 13-ester with (2R,3S)-N-benzoyl-3-phenylisoserine], the “SET Response” value in the data set on SET Ribosome [1] (setting [10]) is “Agonist”.

In the case of `CCCCCOC(=O)Nc1nc(=O)n([C@@H]2O[C@H](C)[C@@H](O)[C@H]2O)cc1F` [capecitabine, pentyl [1-(3,4-dihydroxy-5-methyltetrahydrifuran-2-yl)-5-fluoro-2-oxo-1H-pyrimidine-4-yl]carbamate], in data set [5] (mouse, in vivo), the “Animal weight averages, day 7” value worked out at 20.88 g; the “Animal weight averages, day 10” value is listed as 20.88 g; the “Animal weight averages, day 13” value came to 20.36 g; the “Animal weight averages, day 15” value worked out at 19.38 g. In addition, in data set [5] (mouse, in vivo), the “Animal weight averages, day 18” value came out at 18.50 g; the “Animal weight averages, day 24” value came to 19.56 g; the “Animal weight averages, day 31” value was 21.17 g; the “Animal weight averages, day 35” value turned out to be 22.32 g. Also, in data set [5] (mouse, in vivo), the “Animal weight averages, day 38” value is on record as 22.99 g; the spontaneous death entry is “one”; the survival mean amounted to 24 days. Further, in [5], the “Tumor Regression during Treatment, Average” value is listed as 53.2% and the “Tumor Regression during Treatment, Mean” value turned out to be 56%. Also, in [5] (listed as Cape), the “Tumor Regression during Treatment, Average” value is given as 53.2% and the “Tumor Regression during Treatment, Mean” value is recorded as 56.0%. Also, the survival mean in data set [6] (Example 3 text on FIG. 16) came out at 47 days. Also, the sacrifice mean in [6] (Kaplan-Meier, FIG. 16 description) is reported as 47 days. In addition, in [6], the “Tumor Regression during Treatment, Average” value is given as 35.2% and the “Tumor Regression during Treatment, Mean” value came out at 35.2%. For the same compound, in [6] (listed as Cape), the “Tumor Regression during Treatment, Average” value is listed as 29.4% and the “Tumor Regression during Treatment, Mean” value was 35.2%. Besides, in data set [4] (iv), the “time of maximal metabolite concentration in the plasma” value is 2 to 3 h.

On to `[Cl-].[Cl-].[Co+2]` [cobalt(II) chloride], for which the “doses repressing background SET Ribosome activity” value in the data set with SET Ribosome [7] (cobalt applied alone) is over 50 µM. Further, the “doses inhibiting TPA SET activation” value with SET Ribosome [7] (with 100 nM TPA) was over 200 µM; with SET Ribosome [7] (with 100 nM TPA, listed as CoCl2), at least 200 µM. Besides, the pIC50 was about 3.00 in the data set with SET Ribosome [7] (with 100 nM TPA, read-out: IC50, inhibition of SET activity in cells treated with TPA) and about 3.70 in the data set on SET Ribosome [7] (with paclitaxel Reference Standard, read-out: IC50, inhibition of SET Ribosome activation by paclitaxel). Besides, the “doses inhibiting SET Ribosome activation by paclitaxel (Taxol)” value in the data set with SET Ribosome [7] (with paclitaxel Reference Standard) is over 50 µM; in the data set with SET Ribosome [7] (with paclitaxel Reference Standard, listed as CoCl2), at least 50 µM.

With `C[C@@H]1C[C@@H]([C@H](O)CC2CC(=O)NC(=O)C2)C(=O)[C@@H](C)C1` [cycloheximide], in the data set on SET Ribosome [8], the “IC100 (100% SET Ribosome inhibition)” value is over 10 µM.

Turning to `COc1ccc(C[C@H](N)C(=O)N[C@H]2[C@@H](O)[C@H](n3cnc4c(N(C)C)ncnc43)O[C@@H]2CO)cc1` [puromycin], the “IC100 (100% SET Ribosome inhibition)” value in the data set on SET Ribosome [8] is over 25 µM.

Take `CO[C@H]1C[C@@H]2CC[C@@H](C)[C@@](O)(O2)C(=O)C(=O)N2CCCC[C@H]2C(=O)O[C@H]([C@H](C)C[C@@H]2CC[C@@H](O)[C@H](OC)C2)CC(=O)[C@H](C)/C=C(\C)[C@@H](O)[C@@H](OC)C(=O)[C@H](C)C[C@H](C)/C=C/C=C/C=C/1C` [rapamycin]: in the data set with SET Ribosome [9] (setting [11]), the “concentrations giving SET decline in TPA+Taxol treated samples” value is reported as at least 100 nM and the “dose up to which SET of TPA+Taxol treated samples is super-induced” value is at most 50 nM. Further, in the data set on SET Ribosome [9] (MCF7 TR Class 3/4 lines, rapamycin alone, 6 hours), the “dose giving a spike in fLuc activity” value is 50 nM. Also, the “doses at which the magnitude of SET is reduced but not eliminated” value with SET Ribosome [9] (MCF7 cells, 6 hrs) is on record as over 50 nM.

Consider polyoxyl 35 castor oil [cremophorEL], for which, in data set [5] (mouse, in vivo), the “Animal weight averages, day 7” value came to 22.25 g; the “Animal weight averages, day 10” value came out at 22.39 g; the “Animal weight averages, day 13” value was 22.23 g; the “Animal weight averages, day 15” value was determined as 21.60 g. In [5] (mouse, in vivo), the “Animal weight averages, day 18” value is on record as 21.93 g; the “Animal weight averages, day 24” value came to 21.59 g; the “Animal weight averages, day 31” value was 20.22 g.
